{"source": "patent US8501205B2", "about": "“Insect repellent composition” (priority 2006, dated 2013)", "key": {"[1]": {"test_system": "host-seeking mosquitoes", "assay": "Study A Guatemala field trial, human-landing catch on treated lower legs", "assay_type": "in vivo, Psorophora varipes, Aedes Ochlerotatus taeniorhynchus", "excerpt": "Study A—Guatemala Study. The following repellent formulations (% by weight) were used: (1) C15: repellent containing the amounts of ingredients described in Example 1—the PMD obtained from acid modification of Coryinbia citriodora oil, CAS: 42822-86-6, purchased from Chemian Technology Ltd under the trademark Citriodiol®; (2)115: repellent containing the amounts of ingredients described in Example 1—the PMD obtained from Coolact® 38D; (3) T20: containing 20 wt % PMD instead of 15%, obtained from Coolact® 38D; (4) positive control: 15% DEET (N,N-diethyl-meta-toluamide, CAS 134-62-3; Sigma-Aldrich Co.) in ethanol; (5) negative control: mixture of 20% mineral oil and ethanol.\n(§1) Study A and B, Both studies were controlled double blind, human-landing catch design. All solutions were placed in unmarked containers labeled by code. On any one night, human volunteers had both lower legs treated with either one of the PMD/LG candidate repellents or a positive or negative control at a rate of 0.002 ml/cm^2 between the ankle and the knee. Volunteers' leg length and circumference were measured to calculate surface area and the correct dose of treatment was measured using a micropipette, and applied using a latex glove to minimize absorption of material onto the hand of the volunteer. During the human-landing catches, the volunteers wore shorts to the knee, work boots, and a loose bug jacket (ProBuy) to ensure that blood-seeking mosquitoes had access only to their lower legs.\n(§2) The designated locations within the field sites were 10 m from each other and a minimum of 20 m from alternate sources of kairomones such as houses and livestock. As insect repellents act over a distance of less than a meter, and the maximum distance of host attraction of a single human to mosquitoes is 10 m,^29 the design eliminates any “relativity effect” where insects choose between two hosts simultaneously. Mosquitoes were collected from the lower legs of the volunteers once they had settled—without the need to wait for biting—by using a mouth aspirator, flashlight, and a collection vessel. Collection vessels were changed each hour to provide hourly measures of repellency. Umbrellas were also provided, to protect the volunteers from any rain showers that might wash away their repellent.\n(§3) All volunteers were experienced at conducting man-landing catches. A form outlining procedure was given to the volunteers to ensure that they had full understanding of the potential risks of a study of this kind. In addition, each was given chloroquine (Guatemala) or Mefloquine (Peru) prophylaxis in accordance with WHO guidelines.^30 Full ethical clearance was obtained from Universidad del Valle, Guatemala (Study A); and from London School of Hygiene and Tropical Medicine Ethics Board and Instituto Nacional de Salud, Peru (Study B).\nStudy A. The three repellents and two controls were applied to the five volunteers at 1430 hrs, and man-landing catches were performed at the field site for one hour before and after sunset (1730-1930 hrs), when the evening mosquito biting is at its peak as shown by preliminary man-landing catches. The times chosen allowed an assessment of the protection afforded by the repellent over 5 hours while exposing volunteers to bites for only 2 hours. This helped minimize exposure and risk to the collectors. The study was a balanced 5×5 Latin-square design that required each volunteer to test each treatment five times throughout the study over a period of twenty-five nights. Every evening, each individual was allocated one of five treatments, and sat in one of five allocated positions. Consequently, the volunteers changed position every five days.\nMosquitoes were maintained overnight and killed by cooling prior to identification the following morning. Data were normalized using natural log ([…]) and analyzed with General Linear Model (GLM) using Minitab 11.0 for Windows. […]"}, "[2]": {"test_system": "An. darlingi", "conditions": "for 4 hours after application; biting pressure 75 mosquito landings per human-hour; cited from earlier work"}, "[3]": {"test_system": "All mosquitoes", "assay": "Study B Peru field trial, human-landing catch, all mosquitoes", "assay_type": "in vivo, mosquitoes (86% Anopheles darlingi)", "conditions": "for % P = percentage protection / AM = arithmetic mean mosquito landings/hour / WM = William's mean mosquito landings/hour: All mosquitoes", "excerpt": "(§4) Study B—Peru Study. Repellent formulations (% by weight) were used: (1) “PMD+LG” containing about 16% PMD as indicated in Example 1—PMD obtained from Coolact® 38D; (2) positive control: 20% DEET (Sigma Aldridge) in ethanol (Sigma-Aldrich Co.); (3) negative control: 20% mineral oil (ExxonMobil Corporation) in ethanol.\nas §1, §2, §3\n(§5) Study B. The repellent and two controls were applied at 1600 hrs, and man-landing collections were performed at the field, between 1800 and 2200 hours, as this is the time of peak An. darlingi activity in the area (Chan, A. unpublished data). The times chosen allowed an assessment of the protection afforded by the repellent over to be made of relative protection of the samples for a period of 6 hours while exposing volunteers to bites for only 4 hours. This helped minimize exposure and risk to the collectors. The volunteers took a 15-minute break between 2000 hrs and 2015 hrs. The study was a 3×3 balanced Latin-square design performed using three volunteers over nine nights, with volunteers changing positions every third night. Due to unforeseen circumstances, one of the volunteers was replaced after 4 nights, and this was factored into the statistical analysis.\n(§6) Mosquitoes were maintained overnight and killed by cooling prior to identification the following morning. Data were normalized using natural log ([…]) and analyzed with General Linear Model (GLM) using Minitab 11.0 for Windows. Further testing of individual variables was performed using Kruskal Wallis, as data could not be sufficiently normalized to use one-way Analysis of Variance (ANOVA) due to low collection numbers on repellent-treated individuals."}, "[4]": {"test_system": "Anopheles darlingi", "assay": "Study B Peru field trial, human-landing catch, Anopheles darlingi", "assay_type": "in vivo", "excerpt": "as §4, §1, §2, §3, §5, §6"}, "[5]": {"conditions": "Mean of 4 and 5 hours post application"}}, "note": "Marks after values point to notes of the source that are not given here."}
{"smiles": "CCN(CC)C(=O)c1cccc(C)c1", "note": "[15% DEET, N,N-diethyl-meta-toluamide]", "values": [{"measurement": "% P = percentage protection", "setting": "[1]; 4 hours post application", "value": 94.52, "unit": "%"}, {"measurement": "WM = William's mean mosquito landings/hour", "setting": "[1]; 4 hours post application", "value": 3.63, "unit": "mosquito landings/hour"}, {"measurement": "AM = arithmetic mean mosquito landings/hour", "setting": "[1]; 4 hours post application, 0.002 ml/cm^2 on lower legs", "value": 6.33, "unit": "mosquito landings/hour"}, {"measurement": "% P = percentage protection", "setting": "[1]; 5 hours post application", "value": 87.85, "unit": "%"}, {"measurement": "AM = arithmetic mean mosquito landings/hour", "setting": "[1]; 5 hours post application", "value": 12.21, "unit": "mosquito landings/hour"}, {"measurement": "WM = William's mean mosquito landings/hour", "setting": "[1]; 5 hours post application", "value": 4.87, "unit": "mosquito landings/hour"}, {"measurement": "% P = percentage protection", "setting": "[1]; [5]", "value": 91.42, "unit": "%"}, {"measurement": "AM = arithmetic mean mosquito landings/hour", "setting": "[1]; [5]", "value": 9.27, "unit": "mosquito landings/hour"}, {"measurement": "WM = William's mean mosquito landings/hour", "setting": "[1]; [5]", "value": "3.60^c mosquito landings/hour"}, {"measurement": "protection from host-seeking mosquitoes", "setting": "[1]; up to five hours after application, biting pressure 108 mosquitoes per man hour", "value": 91, "unit": "%"}, {"measurement": "protection", "setting": "[2]", "value": 85, "unit": "%"}]}
{"smiles": "CCN(CC)C(=O)c1cccc(C)c1", "note": "[20% DEET, N,N-diethyl-meta-toluamide]", "values": [{"measurement": "average protection", "setting": "[3]; 6 hours after application / over the duration of the trial", "value": 62, "unit": "%"}, {"measurement": "% P = percentage protection", "setting": "[3]; 3 hours post application", "value": 65.77, "unit": "%"}, {"measurement": "AM = arithmetic mean mosquito landings/hour", "setting": "[3]; 3 hours post application", "value": 15.22, "unit": "mosquito landings/hour"}, {"measurement": "WM = William's mean mosquito landings/hour", "setting": "[3]; 3 hours post application", "value": 10.59, "unit": "mosquito landings/hour"}, {"measurement": "% P = percentage protection", "setting": "[3]; 4 hours post application", "value": 68.12, "unit": "%"}, {"measurement": "AM = arithmetic mean mosquito landings/hour", "setting": "[3]; 4 hours post application", "value": 19.78, "unit": "mosquito landings/hour"}, {"measurement": "WM = William's mean mosquito landings/hour", "setting": "[3]; 4 hours post application", "value": 16.12, "unit": "mosquito landings/hour"}, {"measurement": "% P = percentage protection", "setting": "[3]; 5 hours post application", "value": 63.80, "unit": "%"}, {"measurement": "AM = arithmetic mean mosquito landings/hour", "setting": "[3]; 5 hours post application", "value": 13.89, "unit": "mosquito landings/hour"}, {"measurement": "WM = William's mean mosquito landings/hour", "setting": "[3]; 5 hours post application", "value": 11.68, "unit": "mosquito landings/hour"}, {"measurement": "% P = percentage protection", "setting": "[3]; 6 hours post application", "value": 52.08, "unit": "%"}, {"measurement": "AM = arithmetic mean mosquito landings/hour", "setting": "[3]; 6 hours post application", "value": 18.44, "unit": "mosquito landings/hour"}, {"measurement": "WM = William's mean mosquito landings/hour", "setting": "[3]; 6 hours post application", "value": 15.28, "unit": "mosquito landings/hour"}, {"measurement": "% P = percentage protection", "setting": "[3]; Mean of 3-6 hours", "value": 63.63, "unit": "%"}, {"measurement": "AM = arithmetic mean mosquito landings/hour", "setting": "[3]; Mean of 3-6 hours", "value": 16.83, "unit": "mosquito landings/hour"}, {"measurement": "WM = William's mean mosquito landings/hour", "setting": "[3]; Mean of 3-6 hours", "value": "13.30^c mosquito landings/hour"}, {"measurement": "% P = percentage protection", "setting": "[4]; 3 hours post application", "value": 56.43, "unit": "%"}, {"measurement": "AM = arithmetic mean mosquito landings/hour", "setting": "[4]; 3 hours post application", "value": 13.56, "unit": "mosquito landings/hour"}, {"measurement": "WM = William's mean mosquito landings/hour", "setting": "[4]; 3 hours post application", "value": 9.59, "unit": "mosquito landings/hour"}, {"measurement": "% P = percentage protection", "setting": "[4]; 4 hours post application", "value": 66.53, "unit": "%"}, {"measurement": "AM = arithmetic mean mosquito landings/hour", "setting": "[4]; 4 hours post application", "value": 18.33, "unit": "mosquito landings/hour"}, {"measurement": "WM = William's mean mosquito landings/hour", "setting": "[4]; 4 hours post application", "value": 14.96, "unit": "mosquito landings/hour"}, {"measurement": "% P = percentage protection", "setting": "[4]; 5 hours post application", "value": 62.21, "unit": "%"}, {"measurement": "AM = arithmetic mean mosquito landings/hour", "setting": "[4]; 5 hours post application", "value": 12.89, "unit": "mosquito landings/hour"}, {"measurement": "WM = William's mean mosquito landings/hour", "setting": "[4]; 5 hours post application", "value": 10.59, "unit": "mosquito landings/hour"}, {"measurement": "% P = percentage protection", "setting": "[4]; 6 hours post application", "value": 51.41, "unit": "%"}, {"measurement": "AM = arithmetic mean mosquito landings/hour", "setting": "[4]; 6 hours post application", "value": 17.22, "unit": "mosquito landings/hour"}, {"measurement": "WM = William's mean mosquito landings/hour", "setting": "[4]; 6 hours post application", "value": 13.59, "unit": "mosquito landings/hour"}, {"measurement": "% P = percentage protection", "setting": "[4]; Mean of 3-6 hours", "value": 61.40, "unit": "%"}, {"measurement": "AM = arithmetic mean mosquito landings/hour", "setting": "[4]; Mean of 3-6 hours", "value": 15.00, "unit": "mosquito landings/hour"}, {"measurement": "WM = William's mean mosquito landings/hour", "setting": "[4]; Mean of 3-6 hours", "value": "12.07^c mosquito landings/hour"}]}
